# Test results reported in US20060276502A1, “Pharmaceutical use of 1-azabicyclo[2.2.2]octanes and a method of testing compounds for the ability of activating inactive wt p53” (priority 2003, published 2006).
# How the values were obtained:
# [1] = tested on: caspase-8; test: Western blot for cleavage of caspase-8, control Jurkat cells; assay type: cell-based; conditions: cycloheximide-treated Jurkate cells
# [2] = tested on: M21 human melanoma cells; test: Apoptosis by FITC-Annexin-V staining / FACS of M21 melanoma cells; assay type: cell-based
# Description: With reference to FIG. 1A, the maternal human melanoma cells M21, expressing integrin αvβ3, and a subpopulation, M21L, lacking integrin αvβ3 were cultured in a three-dimensional collagen gel (3D-collagen). At indicated times, apoptosis was detected by FITC-Annexin-V staining.
# Apoptosis was analyzed in M21 cells grown under 2D culture conditions or within 3D-collagen with or without PRIMA-1 treatment for 16, 24, 36 and 48 h. […] This also verifies the results using dn p53 and p53-siRNA (FIG. 3) in an independent manner.
# [3] = biological target: T1, wt p53 (Homo sapiens, UniProt P04637); test: p53 conformation by ELISA with Pab 1620, Pab 240 and DO 1 in melanoma cells in 3D-collagen; assay type: cell-based
# T1 construct: endogenous in cells; host or cells: M21, M21L and AA human melanoma cells
# Description: Data shown in FIG. 2D represents Pab 1620 and Pab 240 reactivity as percentage of D01 reactivity (total p53).
# PRIMA-1 is a substance known from WO0224692 to be able to reactivate the apoptosis-inducing function of mutant p53 proteins. […] The p53 conformation was examined as described above. […] To this end, p53 conformation was also analyzed in AA human melanoma cells expressing αv β3 integrin and wt p53 before and after incubation within 3D collagen (FIG. 4B).
# [4] = tested on: p53; test: Western blot of p53 acetylation and p53 target proteins in M21 tumours grown in nude mice after a single PRIMA-1 injection; assay type: in vivo; conditions: 24 h and 36 h after single injection
# Text: Thus, acetylation of p53-Lys382 is potentially involved in p53 activation by PRIMA-1, while Apaf-1 and PUMA are potential downstream mediators of PRIMA-1- and p53-induced melanoma cell apoptosis in vivo.
# [5] = tested on: Caspase 9; test: Western blot of Caspase 9 activation in M21 tumours grown in nude mice; assay type: in vivo; conditions: 24 h and 36 h after single injection
# Text: Caspase 9 is therefore a potential downstream effector of PRIMA-1- and p53-induced apoptosis in melanoma cells in vivo.
# [6] = tested on: M21 melanoma cells (wt p53); test: M21 melanoma tumour growth s.c. in C57/BL nude mice; assay type: in vivo; conditions: 100 mg/kg for 6 d starting 6 d after inoculation, versus PBS control
# Description: (§1) Tumour volumes were monitored for melanoma growth, as described in the preceding paragraph. Tumour volume over time was determined by the formula: width^2×length×0,52. […] In the Figure, ♦ represents M21; □ M21L; ▴ Lp53His175-0; and ★ Lp53His175-8. M21Lp53His175-0 and M21Lp53His175-8 formed large tumours similar in size to M21 tumours. However, M21L cells lacking integrin αvβ3 typically grew only minimal or developed no tumours.
# (§2) To test if restoration of an active wt p53 conformation by PRIMA-1 could also induce melanoma cell apoptosis in vivo and thereby block melanoma tumour growth, M21 and C8161 melanoma cells (1,5×10^6) were injected s.c. into the back of 6-week-old C57/BL nude mice. The mice were treated with or without PRIMA-1 (100 mg/kg) for 6 d starting 6 d after tumour innoculation.
# [7] = tested on: C8161 melanoma cells (truncated, unfunctional p53); test: C8161 melanoma tumour growth s.c. in C57/BL nude mice; assay type: in vivo; conditions: 100 mg/kg for 6 d starting 6 d after inoculation
# Description: as §1, §2
compound,measurement,setting,value
C[C@@H]1C[C@@H]([C@H](O)CC2CC(=O)NC(=O)C2)C(=O)[C@@H](C)C1 [cycloheximide],caspase-8 cleavage,[1],displayed caspase-8 cleavage
Z-LEHD-FMK x TFA [reference compound],effect on PRIMA-1 induced apoptosis,"[2]; 36 h in 3D-collagen, with 80 μM PRIMA-1",blocked
"O=C1C2CCN(CC2)C1(CO)CO [PRIMA-1, 2,2-bis(hydroxymethyl)-1-azabicyclo[2.2.2]octan-3-one]",p53 conformation (Pab 1620 / Pab 240 reactivity),"[3]; AA human melanoma cells (αvβ3, wt p53), 100 μM PRIMA-1, 5 d in 3D collagen",enforced p53 into an active conformation
same,p53 conformation (Pab 1620 / Pab 240 reactivity),"[3]; M21 cells (αvβ3+), 100 μM PRIMA-1, 3D-collagen, 7 d",restore active p53 conformation from an unfolded inactive state
same,apoptosis (Annexin V staining),"[2]; 100 μM PRIMA-1, 16, 24, 36 and 48 h, 3D collagen versus 2D culture",promoted apoptosis in M21 cells (αvβ3+) within 3D collagen to a much higher degree than in 2D culture
same,apoptosis (Annexin-V staining),"[2]; 36 h in 3D collagen, 80 μM PRIMA-1",induces melanoma cell apoptosis
same,Apaf-1 protein level,[4],induces
same,PUMA protein level,[4],induces
same,acetylation of p53-Lys382,[4],induces
same,activation of Caspase 9,[5],activation of Caspase 9
same,melanoma growth (mean tumour volume),[6],significantly inhibited
same,melanoma growth (mean tumour volume),[7],no effect
